Activity calls are given as the source filed them.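 Rule for the calls: active = maximal inhibition of USP17 at or above 30% in the confirmation dose-response, a value not among the printed readouts; inactive = the rest.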
Target: Ubiquitin carboxyl-terminal hydrolase 17-like protein 5 (Homo sapiens) (UniProt A8MUK1)
Assay: ubiquitin-specific protease 17 inhibitors, concentration series, biochemical, verification of primary actives (AID 1645864)
Conditions: purified USP17, ubiquitin-rhodamine cleavage fluorescence, 3 h

Chain of Ubiquitin carboxyl-terminal hydrolase 17-like protein 5 (Homo sapiens) (A8MUK1 whole entry, looked up): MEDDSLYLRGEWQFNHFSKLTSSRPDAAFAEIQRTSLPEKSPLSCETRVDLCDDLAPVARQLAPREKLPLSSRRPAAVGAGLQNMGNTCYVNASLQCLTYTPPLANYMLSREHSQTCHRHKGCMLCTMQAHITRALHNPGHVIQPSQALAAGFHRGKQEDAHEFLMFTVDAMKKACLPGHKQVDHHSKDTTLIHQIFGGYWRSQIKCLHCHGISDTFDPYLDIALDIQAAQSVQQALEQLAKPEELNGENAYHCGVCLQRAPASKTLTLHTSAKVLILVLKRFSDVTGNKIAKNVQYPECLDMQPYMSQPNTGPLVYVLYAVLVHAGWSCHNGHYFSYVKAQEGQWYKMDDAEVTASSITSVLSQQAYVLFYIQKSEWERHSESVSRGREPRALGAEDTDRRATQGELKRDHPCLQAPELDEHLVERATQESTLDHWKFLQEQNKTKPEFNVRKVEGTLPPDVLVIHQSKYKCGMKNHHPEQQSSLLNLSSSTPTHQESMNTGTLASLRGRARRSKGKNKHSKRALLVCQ

SMILES | IC50
O=C1C(O)=C(c2ccc(O)cc2)C(=O)C(O)=C1c1ccccc1 | 6.1 µM
Cc1c(C)n(-c2ccccc2)c2ncn(CC(=O)NC(C)c3ccccc3)c(=O)c12 (stereo not given) | 22.5 µM
CCc1nc(-c2cc(C(=O)N3CCOCC3)c3ccccn23)cs1 | > 50 µM (inactive)
CCCc1nc2sc3c(NCCCN4CCOCC4)ncnc3c2c2c1CCC2 | > 50 µM (inactive)
Cc1noc(-c2cccn(Cc3cccc(C(F)(F)F)c3)c2=O)n1 | > 50 µM (inactive)
CCN1C(=O)c2cccnc2Sc2cc(NC(=O)c3ccc(Cl)s3)ccc21 | > 50 µM (inactive)
CC(=O)N1CCOc2cc(S(=O)(=O)N3CCCC3c3cc(C)no3)ccc21 (stereo not given) | > 50 µM (inactive)
O=C(C(c1ccccc1)c1ccccc1)N1CCC(c2nc3c(nnn3Cc3c(F)cccc3Cl)c(=O)[nH]2)CC1 | 15.1 µM
O=C(/C=C/c1cnc2ccccc2c1)NCc1ccccc1 | 43.4 µM
CSc1ncc(C(=O)NC(C)c2ccccc2)c(-c2ccccc2)n1 (stereo not given) | 20.5 µM
CC(C)=CCC/C(C)=C/Cc1c(O)cc2c(c1O)C(=O)OC2 | 1.7 µM
Cc1ccccc1C(=O)NCCn1cc(SCC(=O)Nc2ccc3c(c2)OCCO3)c2ccccc21 | > 50 µM (inactive)
O=C(Cn1cc(C(=O)C(F)(F)F)c2ccccc21)N1CCc2ccccc21 | 3.5 µM
CC(=O)Nc1ccc(NC(=O)c2cc(-c3cc(C)cc(C)c3O)n[nH]2)cc1 | 16.3 µM
CCOc1ccc(-c2noc(-c3nn(-c4cccc(OC)c4)ccc3=O)n2)cc1 | 10 µM
Cc1ccc(C(=O)NCc2ccc(C(=O)Nc3ccc(C)c(C)c3)o2)cc1 | 24.1 µM
CCc1ccc(NC(=O)CN=C2NS(=O)(=O)C(c3ccc(CC)cc3)=C2C)cc1 | 32.5 µM
O=C(Nc1ccc2sccc2c1)c1ccc(F)cc1 | 40.6 µM
Cc1noc(-c2cc(=O)n(CC(=O)NCc3ccccc3)c3ccccc23)n1 | 45.6 µM
CC(=O)c1sc(NC(=O)/C=C/c2ccccc2)nc1-c1ccccc1 | 13.7 µM
Cc1ccc(S(=O)(=O)N2CCC3(CC2)NC(=O)c2ccccc2N3)cc1C | 29.8 µM
Cc1cccc(NC(=O)Cn2c(N3CCOCC3)nc3cc(C)n(C)c3c2=O)c1 | 27.6 µM
O=[N+]([O-])c1ccc(N2CCN(c3ncnc4c3[nH]c3ccc(F)cc34)CC2)cc1 | 0.247 µM
CCc1nc(-c2cccc(NC(=O)c3ccc(C#N)cc3F)c2)no1 | > 50 µM (inactive)
Clc1cccc(N2CCN(c3ncnc4nc[nH]c34)CC2)c1 | > 50 µM (inactive)

SMILES | IC50
CC(c1ccccc1)n1c(-c2ccc(F)cc2)nc2c(c(=O)c3ccccc3n2C)c1=O (stereo not given) | 2.85 µM
COc1ccc(-c2cc3nc([C@H](C)NC(=O)Cc4ccccc4C)nn3cn2)cc1 | 2.38 µM
Nc1c(C(=O)Nc2ccc3c(c2)OCO3)sc2nc(-c3cccnc3)ccc12 | 1.64 µM
Cc1nc2cc(C(=O)NCCC3=CCCCC3)ccc2n1-c1cccc(F)c1 | > 50 µM (inactive)
CN(Cc1ccccc1)S(=O)(=O)c1ccc(S(=O)(=O)N2CCN(C(=O)c3cccnc3)CC2)cc1 | 44 µM
COc1ccc(NC(=O)CN2C(=O)c3ccccc3Sc3ccc(C(=O)N4CCCC4)cc32)cc1OC | 26.1 µM
CCN(CC)C(=O)CN1CCCC(c2ncncc2-c2cc(C)no2)C1 (stereo not given) | > 50 µM (inactive)
Cc1ccn(-c2ccc(NC(=O)C3CCCCC3)cc2)n1 | 20.2 µM
COc1ccc2nc(Nc3ncc4c(n3)CCCC4=O)nc(C)c2c1 | > 5 µM (inactive)
COc1cccc(Cn2nc3n(CC(C)C)c(=O)c4ccc(C(=O)NCC(C)C)cc4n3c2=O)c1 | 6.84 µM
COc1cc2c(c(OCC(=O)Nc3ccc4c(c3)OCCO4)c1)C(=O)O[C@@H](C)CCCC(=O)CCCCC2 | 23.1 µM
CC(=O)Nc1ccc(S(=O)(=O)NCc2ccc(C(=O)NCc3ccc(C)cc3)cc2)cc1 | 27.9 µM
C[C@@H]1OC2=C(C(=O)c3cccc(O)c3C2=O)[C@H](O)[C@@H]1O | 0.31 µM
COc1ccc(C2CC(c3ccc(C)cc3)N(C(=O)C3CC3)c3ncnn32)cc1 (stereo not given) | > 50 µM (inactive)
C=C1CCC2[C@](C)(CCC[C@]2(C)C(=O)OC)[C@H]1CCc1ccoc1CNC(C)C (stereo not given in full) | > 50 µM (inactive)
Cc1cc2nc(Oc3cccc(Cl)c3)c3ccccc3n2n1 | 1.91 µM
CC1=C(C)C(N(c2ccccc2)c2ccccc2)N(CCC(C)C)C1=O (stereo not given) | 19.2 µM
O=C(Nc1ccccc1Sc1ncc(-c2ccc(Cl)cc2)cn1)c1ccco1 | 5.78 µM
COc1ccccc1CNC(=O)CCCCn1c(=O)c2ccccc2n(Cc2ccccc2C#N)c1=O | 13.1 µM
O=C1NCCCC1Cc1ccc(-c2cccc(C(=O)N3CCc4ccccc4C3)c2)cc1 (stereo not given) | 38.2 µM
Cc1nnc(-c2nnc(NCc3ccc(Cl)cc3)c3ccccc23)o1 | > 50 µM (inactive)
COc1ccc2cc1Oc1cc(ccc1OC)C(O)C13SSC4(C(=O)N1C)C(O)C1=COC=CC(OC2=O)C1N4C3=O (stereo not given) | > 50 µM (inactive)
COc1ccc(C2SCC(=O)Nc3c2c(=O)[nH]n3C2CCCCC2)cc1 (stereo not given) | 28.7 µM
COc1cccc(/C=C/C(=O)Nc2ccc(C)c(Cl)c2)c1 | 43.4 µM
CC(C)c1ccc(NC(=O)COC(=O)c2ccc3[nH]c4c(c3c2)CCCC4)cc1 | 42.7 µM
